Patent US8114843B2, “Photoreactive regulator of protein function and methods of use thereof” (The Regents of the University of California, priority 2005, dated 2012)

What was measured:
Kv1.2 = molecular target: T1, Kv1.2 (Homo sapiens, UniProt P16389); experiment: PAL photoswitching, whole-cell patch clamp in HEK cells; assay type: cell-based
T1 construct: expressed in transfected cells; host or cells: HEK cells
Method: (§1) Cell culture and transfection. HEK293 cells were grown in DMEM containing 5% fetal bovine serum, at 37° C., 7% CO2. For electrophysiology, cells were plated at 12×10^5 cells/cm^2 on poly-L-lysine coated coverslips and transfected using the calcium phosphate method. Recordings were performed 24-36 hours after transfection.
(§2) PAL attachment. HEK293 and hippocampal cells were rinsed in extracellular solution containing in mM: 138 NaCl, 1.5 KCl, 1.2 MgCl2, 2.5 CaCl2, 5 HEPES, 10 glucose and incubated at 37° C. in the dark with 200-250 μM PAL for 15 minutes. For slices, AAQ was diluted to 200 μM in aCSF and treatment was performed in the dark at room temperature for 10 minutes.
(§3) Electrophysiological recording. Recordings from HEK293 and hippocampal neurons were made in the whole-cell patch clamp configuration using a PC-501A amplifier (Warner Instruments). Pulse protocols and measurements were carried out with pCLAMP and a Digidata 1322 interface (Axon Instruments). For voltage-clamp experiment, cells were held at −70 mV. Data was recorded at 20 kHz and filtered at 2 kHz. Recording pipettes with 2.5-4 MΩ resistance were filled with intracellular solution containing in mM: 10 NaCl, 135 K-gluconate, 10 HEPES, 2 MgCl2, 2 MgATP, 1 EGTA, pH 7.4.
(§4) Illumination was provided using a xenon lamp (Sutter Instruments) with narrow band pass filters (380 BP10 for UV and 500 BP5 for visible light respectively). Excitation filters were changed using a lambda 10-2 filter changer (Sutter Instruments) controlled via pCLAMP software.
(§5) Percent photoswitching was defined as the difference between current in UV and visible light divided by current in UV. All data shown in bar graphs are averages±standard error of the mean.

Purkinje neurons = experiment: Loose-patch extracellular recording in cerebellar slices; assay type: cell-based, rat; conditions: 200 μM for 10 minutes; full-field 360 nm light; n=5
Method: Brain Slice Preparation. Parasagittal cerebellar slices were prepared using standard techniques approved by the UCLA Animal Care Committee. […] PAL attachment. […] For cerebellar slices, neuronal cell bodies were visualized using an upright microscope with a 40× water immersion lens and equipped with an infrared-DIC enhancement. Loose-patch extracellular recordings were performed using an Axopatch 200B amplifier (Axon Instruments). Electrophysiological recordings were filtered at 1 KHz and digitized at 2-4 KHz. Pipettes were typically 1.4-2.0 MΩ for recordings from PNs and 3.0-3.5 MΩ for interneurons and filled with aCSF. […] All recordings were performed at room temperature. […] Excitation filters were changed using a lambda 10-2 filter changer (Sutter Instruments) controlled via pCLAMP software.

[1] = system: cultured hippocampal neurons; experiment: Live/Dead assay after PAL treatment; assay type: cell-based; conditions: 200 μM
From the text: Live/Dead assay. After PAL treatment, hippocampal neurons were processed for the live dead assay (Molecular Probes) according to the manufacturer's instructions. Cells were counted in 4-8 fields for each treatment condition.

rat retina = experiment: AAQ injection into the rat eye (ERG, retinal toxicity); assay type: in vivo
Method: Rats were dark-adapted overnight, and the entire procedure was done under very dim red light. Rats were anesthetized and placed in a standard electroretinogram (ERG) setup. Recording electrodes were embedded in contact-like cups, which were mounted onto each eye with a conductive adherent fluid. Reference electrodes were placed in the mouth. A light source emitted brief flashes of white light at various intensities. The electrical response of the retina to each light flash was recorded; three trials per intensity were averaged together. Under normal conditions, the ERG will consist of a small downward deflection (A-wave), which reflects the activity of photoreceptors, and a larger upward deflection (B-wave), which reflects the activity of bipolar cells.

wild-type Shaker (E422) = molecular target: T2, wild-type Shaker (E422) (Drosophila melanogaster, UniProt P08510, DEL6-46); experiment: PAL photoswitching, whole-cell patch clamp in HEK293 cells; assay type: cell-based; conditions: n=6
T2 construct: expressed in transfected cells; host or cells: HEK293
T2 sequence (P08510 other isoform, or with tags, fused parts or gaps DEL6-46): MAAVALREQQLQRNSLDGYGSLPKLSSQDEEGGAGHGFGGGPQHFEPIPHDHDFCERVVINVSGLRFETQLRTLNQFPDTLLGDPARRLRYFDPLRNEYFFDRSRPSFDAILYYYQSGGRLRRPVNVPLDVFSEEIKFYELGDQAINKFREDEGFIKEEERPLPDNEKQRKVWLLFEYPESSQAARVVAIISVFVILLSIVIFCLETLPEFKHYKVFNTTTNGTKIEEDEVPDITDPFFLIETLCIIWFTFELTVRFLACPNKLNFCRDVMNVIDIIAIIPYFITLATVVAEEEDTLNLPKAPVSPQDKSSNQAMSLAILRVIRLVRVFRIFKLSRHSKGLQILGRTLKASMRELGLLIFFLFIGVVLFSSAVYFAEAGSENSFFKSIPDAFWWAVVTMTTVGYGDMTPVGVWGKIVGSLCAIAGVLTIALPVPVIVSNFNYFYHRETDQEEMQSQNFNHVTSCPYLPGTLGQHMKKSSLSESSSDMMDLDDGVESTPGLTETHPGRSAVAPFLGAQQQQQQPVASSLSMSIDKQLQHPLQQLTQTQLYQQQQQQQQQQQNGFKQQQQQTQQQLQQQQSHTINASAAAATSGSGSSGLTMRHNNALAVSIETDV
Method: as §1, §2, §3, §4, §5

[2] = molecular target: T3, Shaker channel with engineered cysteine (E422C) (Drosophila melanogaster, UniProt P08510, DEL6-46/E422C); experiment: as above; assay type: cell-based; conditions: n=6
T3 construct: expressed in transfected cells; host or cells: HEK293
T3 sequence (P08510 other isoform, or with tags, fused parts or gaps DEL6-46/E422C): as the sequence (P08510 other isoform, or with tags, fused parts or gaps DEL6-46) above, with E381C counted along it
Method: as §1, §2, §3, §4, §5

[3] = system: voltage-gated outward current (endogenous K+ channels) in cultured hippocampal neurons; experiment: Photocontrol of K+ current in cultured hippocampal neurons; assay type: cell-based, rat; conditions: 200 μM, 15 min in the dark
Method: Hippocampal neurons were prepared from neonatal Sprague-Dawley rats according to standard procedures (Goslin) and grown on poly-L-lysine coated coverslips in MEM supplemented with 5% fetal bovine serum, B27 (Invitrogen), glutamine and serum extender (BD Biosciences). Animal care and experimental protocols were approved by the UC Berkeley Animal Care and Use Committee. Recordings were performed 9-16 days after plating. The Shaker construct also contains an N-terminal deletion (Δ6-46) to minimize fast inactivation.
as §2
as §3, with “Recording pipettes with 2.5-4 MΩ resistance were filled with intracellular solution containing in mM: 10 NaCl, 135 K-gluconate, 10 HEPES, 2 MgCl2, 2 MgATP, 1 EGTA, pH 7.4.” left out

[4] = system: transient inward current (voltage-gated Na+ and Ca2+ currents) in neurons; experiment: Voltage-clamp of transient inward current in PAL-treated neurons; assay type: cell-based, rat; conditions: Cs+ in the patch pipette
Method: as §3, with “Recording pipettes with 2.5-4 MΩ resistance were filled with intracellular solution containing in mM: 10 NaCl, 135 K-gluconate, 10 HEPES, 2 MgCl2, 2 MgATP, 1 EGTA, pH 7.4.” left out

T1 sequence (P16389 whole entry): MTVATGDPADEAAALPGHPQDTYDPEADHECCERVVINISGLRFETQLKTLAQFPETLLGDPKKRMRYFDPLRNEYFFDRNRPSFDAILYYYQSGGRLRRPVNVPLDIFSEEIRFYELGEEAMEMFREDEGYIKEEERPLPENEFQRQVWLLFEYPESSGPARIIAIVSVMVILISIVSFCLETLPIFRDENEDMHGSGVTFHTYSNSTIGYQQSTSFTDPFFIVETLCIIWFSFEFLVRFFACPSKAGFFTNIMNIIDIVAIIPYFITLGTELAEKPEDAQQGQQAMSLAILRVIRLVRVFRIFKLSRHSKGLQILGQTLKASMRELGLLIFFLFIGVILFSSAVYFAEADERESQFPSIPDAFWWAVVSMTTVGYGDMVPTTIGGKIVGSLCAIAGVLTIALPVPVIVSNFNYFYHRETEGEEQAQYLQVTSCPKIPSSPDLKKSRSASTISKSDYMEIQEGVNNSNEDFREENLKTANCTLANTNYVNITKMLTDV

C=CC(=O)Nc1ccc(/N=N/c2ccc(NC(=O)C[N+](CC)(CC)CC)cc2)cc1 [AAQ]
light-sensitivity imparted on channel (Kv1.2): imparted light-sensitivity
increase in firing frequency (Purkinje neurons): 42±12%
death of neurons ([1]; 15 min): ~10%
loss of neurons ([1]; 60 min): ~15%
toxic consequences on rat retina (ERG) (rat retina; 7 days post injection): without toxic consequences
effects on retinal neurons after injection into the vitreous humor (rat retina; rat eye): no detectable deleterious effects
fraction of current that could be photoswitched (wild-type Shaker (E422)): 48±2%
fraction of current that could be photoswitched [2]: 39±1%
percent of the outward current that could be photoswitched [3]: 63±8%
light-sensitivity of transient inward current [4]: does not become light-sensitive
